Test results from patent publication US20250082720A1, “NEW PEPTIDE AND USES THEREOF” (Neo Cremar Co., Ltd., priority 2021, published 2025).

Legend:
[1] = system: C2C12 cells; experiment: C2C12 myoblast proliferation (MTT method); assay type: cell-based, mouse; settings: for increase in cell proliferation compared to cells without peptide treatment: C2C12, peptide 1000 nM, 1 day, MTT, FIG. 4
Protocol: C2C12 cells, a mouse myoblast line, were cultured in Dulbecco's Modified Eagle's Medium (DMEM)+10% fetal bovine serum (FBS)+1% penicillin/streptomycin (P/S). To validate the effect of MIF peptide, C2C12 cells (2×10^3 cells/ml) were placed in a 12 well cell culture dish and attached for 24 hours, and MIF2 or Ac-MIF2-NH2 peptide (1000 nM) was treated for 1 day to observe cell proliferation by MTT method. The medium was replaced every 2 days, and the cells were cultured at 37° C.
(§1) To validate cell proliferation, the culture medium of the cells was removed, the cells were washed with DMEM, 500 μl of MTT reagent (0.5 mg/ml) dissolved in phosphate buffered saline (PBS) was added to each well, and the cells were left at 37° C. for 1 hour. The reaction solution was removed, and 1000 μl of DMSO was added to each well. Purple formazan crystals were completely dissolved in DMSO, and the absorbance was measured at 540 nm.

[2] = system: 3T3L1 cells; experiment: Adipodifferentiation of 3T3L1 cells (Oil Red O staining); assay type: cell-based, mouse; settings: 3T3L1, adipocyte differentiation medium, 4 days, FIG. 13B
Protocol: For differentiation of 3T3L1 cells into adipocytes, when the cells grew about 100% or more, they were replaced with differentiation medium (DMEM+10% FBS+1% P/S+10 μg/ml insulin+1 μM dexametazone+0.5 μM IBMX (3-isobutyl-1-methylxanthine)) and cultured for 2 days. After 2 days, MIF peptide was treated in a medium including 10 μg/ml insulin to induce cell differentiation.
3T3L1 cells were treated with peptides and differentiated for 4 days, then the medium was removed, and the cells were washed with normal saline, treated with 10% formaldehyde, and left for 10 minutes. After 10 minutes, Oil-red O staining agents (6 ([…] Oil-red O reagent+1 ml 100% isopropanol): 4 (distilled water)) were treated and left for 1 hour. After 1 hour, cells were washed with normal saline and then observed under a microscope. To measure the Oil-red O stained in the intracellularly differentiated cells, 100% isopropanol was added and collected, followed by measurement at 510 nm.

[3] = system: gastrocnemius muscle of C57BL/6 mice; experiment: Myoregeneration after Ac-MIF2-NH2 injection and cardiotoxin (CTX) muscle injury; assay type: in vivo, mouse
Source text: The male C57BL/6 mice were purchased from Dae Han Bio Link Co., Ltd., four of which per cage were kept in a temperature-controlled room with a 12-hour light cycle. The animals were fed with a standard rodent diet containing 4.0% (wt/wt) total fat (Rodent NIH-31 Open Formula Auto; Zeigler Bros., Inc., Gardners, PA, USA) and water. All experiments involving animals complied with the guidelines (YUMC-AEC2015-006) issued by the Animal Control Committee of Youngnam University's Animal Research Institute. The MSTN knock-out mouse was provided by a laboratory at Seoul National University. Normal, MSTN+/−(heterozygous), and MSTN−/−(homozygous) adipose tissues were fixed by collecting from 6-week-old mice and stored at −80° C. until required for analysis.
Muscle tissues containing paraffin was subjected to deparaffinization with xylene and ethanol and hydration, respectively, and the tissue was soaked in 0.3% hydrogen peroxide water (H2O2)/methanol for 15 minutes to stop endogenous peroxidase activity. Then, tissues were stained with hematoxylin/eosin for morphological observation or reacted with 1% normal goat serum at room temperature for 1 hour to block a reaction with non-specific antibodies, followed by a reaction with the primary antibody (1:50) at 4° C. for over 16 hours. After 16 hours, washing was performed 3 times with PBS, followed by a reaction with secondary antibody (1:100) with HRP conjugated at room temperature for 1 hour. Horse radish peroxidase-conjugated streptavidin was added to detect the expression of the protein, followed by observation under a microscope.
In order to observe the myoregeneration effect following MIF peptide injection, mice were injected with Ac-MIF2-NH2 peptide and injected/uninjected with cardiotoxin (hereinafter referred to as CTX) into the muscle, followed by observation of the morphology and regeneration of the muscle. A day after C57BL/6 mice were injected with Ac-MIF2-NH2 peptide (1.125 mM), […] cardiotoxin was injected into the gastrocnemius. Muscle tissues were sampled 7 days after CTX injection.
Paraffin-embedded muscle sections were deparaffinized using xylene, rehydrated using a concentration gradient of ethanol, stained with hematoxylin and eosin, observed under an optical microscope, magnified at 400× scale, and photographed, followed by measurement of the diameter of muscle fibers using Image J software.

[4] = system: 3T3L1 cells; experiment: 3T3L1 cell proliferation (MTT method); assay type: cell-based, mouse; settings: 3T3L1, peptide 1000 nM, 2 days, FIG. 13A
Protocol: 3T3L1 cells, mouse fibroblasts, were cultured in Dulbecco's Modified Eagle's Medium (DMEM)+10% fetal bovine serum (FBS)+1% penicillin/streptomycin (P/S). To validate the effect of MIF peptide, 3T3L1 cells (2×10^3 cells/ml) were placed in a 12-well cell culture dish, attached for 24 hours, and treated with MIF peptide (1000 nM) for 2 days, followed by observation of cell proliferation by MTT method. The medium was replaced once every 2 days, and the cells were cultured at 37° C.
as §1

[5] = system: C2C12 cells; experiment: Scratch experiment, degree of cell recovery; assay type: cell-based, mouse; settings: C2C12 100% grown, 1000 nM peptide, 1 day
Protocol: When the C2C12 cells were 100% grown, cells were scratches on the surface, treated with 1000 nM MIF2 or Ac-MIF2-NH2 peptides, and cultured for 1 day, followed by observation for a degree of cell recovery.

[6] = system: C2C12 cells; experiment: Myodifferentiation: root canal formation and fusion index (Giemsa staining); assay type: cell-based, mouse; settings: for increase in fusion index compared to untreated cells: C2C12, differentiation medium with peptide; for root canal formation compared to untreated cells: C2C12, differentiation medium
Protocol: When C2C12 cells were 70% grown, media were replaced with myodifferentiation medium added with MSTN protein (1 ng), Ac-MIF2-NH2 (1000 nM), and Ac-MIF2-NH2 (1000 nM)+MSTN protein (1 ng) from proliferation medium, followed by culture for 3 days.
When the cells grew more than 70% for differentiation of myoblasts into myocytes, they were cultured for 3 days by replacing with a differentiation medium (DMEM+2% FBS+1% P/S). The medium was replaced once daily, and the cells were cultured at 37° C.
The cell medium was removed, and the cells were washed with PBS. After washing, a methanol: PBS reagent in a 1:1 volume ratio was treated, followed by fixation for 2 minutes. Additionally, after a methanol: PBS reagent in a 2:1 volume ratio was added, fixation was followed for additional 2 minutes. After 2 minutes, 0.04% Giemsa reagent was added, and then the cells were left for 30 minutes, washed with PBS after 30 minutes, and observed under a microscope, with 3 photographs taken for each cell (300×). In the photographs taken, the number of fused nuclei in the root canal cells was counted, the number of nuclei of total cells was counted, and the number of fused nuclei was divided by the number of nuclei of the total cells to obtain the % value.

[7] = system: C2C12 cells; experiment: Expression of myodifferentiation-related factors (real-time PCR, Western blot, immunocytochemistry); assay type: cell-based, mouse
Protocol: (§2) After adding 1 ml of TRIzol™ reagent, the cells were crushed using a sonicator. After centrifugation of the crushed sample (12,000 rpm, 10 min, 4° C.), the supernatant was transferred to a new tube, added with 200 μl of chloroform, and left at room temperature for 10 minutes. After 10 minutes, centrifugation (12,000 rpm, 10 min, 4° C.) was performed, yielded a transparent supernatant. Next, 500 μl of isopropanol was added, the mixture was left for 10 minutes, and centrifugation was performed to obtain RNA pellets. After washing by adding 70% ethanol (distilled water treated with ethanol+diethylpyrocarbonate (hereinafter referred to as DEPC)) to the RNA pellets, complete removal and drying were followed. The dried transparent RNA was added with DEPC-treated distilled water and then stored at −80° C. Total RNA volume was measured by nanodrop, and the 18s and 28s bands were detected in 1.2% agarose gel. cDNA was synthesized with 2 μg of total RNA, random hexamer primers, and reverse transcriptase (25° C.: 10 min, 37° C.: 120 min, 85° C.: 5 min).
Real-time PCR (RT-PCR) was performed for detecting gene expression. For observation of real-time gene expression, gene expression was analyzed using the Power SYBR Green PCR Master Mix, which includes fluorescent materials of SYBR green (7500 Real-time PCR system). The PCR primer was designed with Primer 3 software (http://frodo.wi.mit.edu) according to the nucleotide sequence secured from NCBI GenBank. PCR was performed 40 times at 95° C. for 10 minutes, again at 95° C. for 33 seconds, at gene primer temperature (tm) for 33 seconds, and at 72° C. for 33 seconds. Gene expression values were analyzed through the analysis of c(t) values obtained through real-time PCR analysis (fold change 2-ΔΔCt formula). Setting the gene expression value of the untreated cells to 1, the gene expression value of the treated cells was calculated. In the analysis of gene c(t) values, normalization was conducted with the glyceraldehyde-3-phosphate dehydrogenase (GAPDH).
The medium of cultured C2C12 cells was removed and washed once with PBS. The washed cells were treated with 4% formaldehyde (Sigma), fixed for 15 minutes, then washed using PBS, added with 0.2% trypton X-100 (Sigma), and left for 5 minutes. After washing again using PBS, adding 1% normal goat serum, and leaving for 30 minutes, the primary antibody (MYOD, myogenin (MYOG): myosin light chain (MYL2); 1:50) was added to carry out a reaction at 4° C. for 14 hours. The antibodies were removed, washing was performed 3 times with PBS for 10 minutes, and then the cells were left with secondary antibody (Alexa Fluor 488 goat anti-Mouse & rabbit SFX kit t) for 1 hour. After 1 hour, the antibodies were removed, washing was performed with PBS for 10 minutes, the nuclei were stained with 4′,6-diamidino-2-phenylindol (DAPI), and the expression of the proteins was observed using fluorescence microscopy.
(1) The medium of cultured C2C12 cells was removed, followed by washing with PBS. After adding LIPA buffer and protease inhibitor to the washed cells, the proteins included in the supernatant were collected after centrifugation for 10 minutes at 12000 rpm. 40 μg of the extracted proteins were subjected to electrophoresis in 8 to 10% acrylamide gel and then transferred to a polyvinylidene fluoride (PVDF) membrane (Milipore). These were blocked with 3% skim milk or bovine serum albumin (BSA) at room temperature for 1 hour. Afterwards, primary antibody diluted in 1% skim milk or BSA (Pax7; 1:500, MYOD; 1:500, MYOG; 1:400, MYL2; 1:1000, MYH; 1:500, MSTN; 1:1000, β-actin; 1:1000, MuRF1; 1:400, and Atrogin; 1:1:400) was added and reacted at 4° C. for over 16 hours. After 16 hours, cells were washed three times with TBST (Tris-buffered saline with Tween 20) and reacted with secondary antibody with horseradish peroxidase (HRP) conjugated at room temperature for 1 hour. […]

[8] = system: 3T3L1 cells; experiment: Expression of FMOD, MSTN and lipogenesis-related factors in 3T3L1 cells (real-time PCR, Western blot); assay type: cell-based, mouse; settings: 3T3L1, compared to untreated cells, FIG. 13C
Protocol: as §2, with “After washing by adding 70% ethanol (distilled water treated with ethanol+diethylpyrocarbonate (hereinafter referred to as DEPC)) to the RNA pellets, complete removal and drying were followed. The dried transparent RNA was added with DEPC-treated distilled water and then stored at −80° C.” left out
Real-time PCR (RT-PCR) was performed for detecting gene expression. For observation of real-time gene expression, gene expression was analyzed using the Power SYBR Green PCR Master Mix, which includes fluorescent materials of SYBR green (7500 Real-time PCR system). […] Gene expression values were analyzed through the analysis of c(t) values obtained through real-time PCR analysis (fold change 2-ΔΔCt formula). Setting the gene expression value of the untreated cells to 1, the gene expression value of the treated cells was calculated. […]

[9] = injected muscle, 7 days after CTX, FIG. 10B
[10] = C2C12 differentiation, versus control
[11] = C2C12 myodifferentiation, FIG. 8
[12] = C2C12 myodifferentiation, FIG. 6

Substance: Ac-VDFEAGDWFW-NH2 [Ac-MIF2-NH2, MIF2 peptide with acetylated N-terminus and amidated C-terminus]
- increase in cell proliferation compared to cells without peptide treatment [1]: 33%
- decrease in fat accumulation (Oil-red O intensity) compared to cells without peptide treatment [2]: 9%
- muscle weight compared to muscle without injection ([3]; 7 days after CTX injection): no significant difference
- diameter of the muscle fibers compared to muscles without injection ([3]; 7 days after CTX, FIG. 10C): increased
- muscle weight ([3]; CTX + Ac-MIF2-NH2, 7 days after CTX injection): 0.147 ± 0.163 g
- mRNA expression of Pax7, MYOD, MYOG, MYL2, and MYH in muscle ([3]; injected muscle, 7 days after CTX, FIG. 10A): significantly increased
- MSTN protein expression in muscle [3, 9]: decreased
- protein expression of Pax7, MYOD, MYOG, MYL2, and MYH in muscle [3, 9]: increased
- decrease in proliferation compared to cells without peptide treatment [4]: 10%
- increase in scratch recovery degree compared to untreated cells [5]: 26%
- increase in fusion index compared to untreated cells ([6]; 3 days): 14%
- root canal formation compared to untreated cells ([6]; 3 days): increased
- fusion index compared to untreated cells ([6]; C2C12, myodifferentiation medium, 3 days, FIG. 9): increased
- MSTN protein expression [7, 10]: reduced
- mRNA and protein expression of MYOD, MYOG, MYL2, and MYH [7, 10]: increased
- ACVRIIB protein expression [7, 11]: reduced
- gene expression of Atrogin1 and MuRF1 [7, 11]: reduced
- expression of FMOD; MSTN; and lipogenesis-related mRNAs and proteins (CD36, CD163, and PPARγ) [8]: decreased

Substance: VDFEAGDWFW [MIF2]
- increase in cell proliferation compared to cells without peptide treatment [1]: 6%
- increase in scratch recovery degree compared to untreated cells [5]: 22%
- increase in fusion index compared to untreated cells ([6]; 3 days): 12%
- expression of MSTN mRNA and proteins [7, 10]: did not show any significant differences
- mRNA and protein expression of MYOD, MYOG, MYL2, and MYH [7, 10]: increased
- expression of ACVRIIB mRNA [7, 12]: decreased
- expression of MuRF1 and ACVRIIB proteins [7, 12]: decreased

Substance: MSTN protein: myostatin protein that inhibits the proliferation and differentiation of myoblasts [reference compound]
- proliferation of cells compared to untreated cells ([1]; C2C12, MSTN protein in proliferation medium, FIG. 3): reduced
- differentiation of cells compared to untreated cells ([6]; C2C12, MSTN protein in differentiation medium, FIG. 3): reduced
- root canal formation compared to untreated cells ([6]; 3 days): reduced
